Measured values reported in ChEMBL document CHEMBL3639365, “Substituted aniline derivatives” (2014).

Columns and labels:
1,3-beta-glucan synthase [1] = target: 1,3-beta-glucan synthase (Aspergillus, UniProt Q4WLT4); assay: (§1) Glucan Synthase Assay: The glucan synthase assay follows the incorporation of tritiated UDP-glucose into acid insoluble β-glucan as catalysed by the glucan synthase activity present in membrane preparations from Candida albicans and Aspergillus fumigatus. UDP-[3H]-glucose (ca 0.01 μCi) is added to 100 μl assay buffer (50 mM Tris-Cl, pH8.0, 8% glycerol, 1 mM EDTA, 1.5 mM KF, 1 mM DTT, 20 μM GTPγS, 600 μM UDP-glucose) and the reaction initiated by the addition of 2.5 μl of enzyme preparation. After incubation at 30°C. for 120 minutes, 10 μl of 30 mg/ml BSA is added with mixing and the reaction is terminated with 110 μl ice-cold 20% TCA. The precipitate is collected on a GF/B filter plate and washed three times with 200 μl water. Once dry, 200 μl of Microscint20 is added to each well and the plate is read on a Top-count scintillation counter.
1,3-beta-glucan synthase [2] = target: 1,3-beta-glucan synthase (Candida, UniProt O13428); assay: as §1
1,3-beta-glucan synthase (Candida, UniProt O13428), sequence (O13428 whole entry): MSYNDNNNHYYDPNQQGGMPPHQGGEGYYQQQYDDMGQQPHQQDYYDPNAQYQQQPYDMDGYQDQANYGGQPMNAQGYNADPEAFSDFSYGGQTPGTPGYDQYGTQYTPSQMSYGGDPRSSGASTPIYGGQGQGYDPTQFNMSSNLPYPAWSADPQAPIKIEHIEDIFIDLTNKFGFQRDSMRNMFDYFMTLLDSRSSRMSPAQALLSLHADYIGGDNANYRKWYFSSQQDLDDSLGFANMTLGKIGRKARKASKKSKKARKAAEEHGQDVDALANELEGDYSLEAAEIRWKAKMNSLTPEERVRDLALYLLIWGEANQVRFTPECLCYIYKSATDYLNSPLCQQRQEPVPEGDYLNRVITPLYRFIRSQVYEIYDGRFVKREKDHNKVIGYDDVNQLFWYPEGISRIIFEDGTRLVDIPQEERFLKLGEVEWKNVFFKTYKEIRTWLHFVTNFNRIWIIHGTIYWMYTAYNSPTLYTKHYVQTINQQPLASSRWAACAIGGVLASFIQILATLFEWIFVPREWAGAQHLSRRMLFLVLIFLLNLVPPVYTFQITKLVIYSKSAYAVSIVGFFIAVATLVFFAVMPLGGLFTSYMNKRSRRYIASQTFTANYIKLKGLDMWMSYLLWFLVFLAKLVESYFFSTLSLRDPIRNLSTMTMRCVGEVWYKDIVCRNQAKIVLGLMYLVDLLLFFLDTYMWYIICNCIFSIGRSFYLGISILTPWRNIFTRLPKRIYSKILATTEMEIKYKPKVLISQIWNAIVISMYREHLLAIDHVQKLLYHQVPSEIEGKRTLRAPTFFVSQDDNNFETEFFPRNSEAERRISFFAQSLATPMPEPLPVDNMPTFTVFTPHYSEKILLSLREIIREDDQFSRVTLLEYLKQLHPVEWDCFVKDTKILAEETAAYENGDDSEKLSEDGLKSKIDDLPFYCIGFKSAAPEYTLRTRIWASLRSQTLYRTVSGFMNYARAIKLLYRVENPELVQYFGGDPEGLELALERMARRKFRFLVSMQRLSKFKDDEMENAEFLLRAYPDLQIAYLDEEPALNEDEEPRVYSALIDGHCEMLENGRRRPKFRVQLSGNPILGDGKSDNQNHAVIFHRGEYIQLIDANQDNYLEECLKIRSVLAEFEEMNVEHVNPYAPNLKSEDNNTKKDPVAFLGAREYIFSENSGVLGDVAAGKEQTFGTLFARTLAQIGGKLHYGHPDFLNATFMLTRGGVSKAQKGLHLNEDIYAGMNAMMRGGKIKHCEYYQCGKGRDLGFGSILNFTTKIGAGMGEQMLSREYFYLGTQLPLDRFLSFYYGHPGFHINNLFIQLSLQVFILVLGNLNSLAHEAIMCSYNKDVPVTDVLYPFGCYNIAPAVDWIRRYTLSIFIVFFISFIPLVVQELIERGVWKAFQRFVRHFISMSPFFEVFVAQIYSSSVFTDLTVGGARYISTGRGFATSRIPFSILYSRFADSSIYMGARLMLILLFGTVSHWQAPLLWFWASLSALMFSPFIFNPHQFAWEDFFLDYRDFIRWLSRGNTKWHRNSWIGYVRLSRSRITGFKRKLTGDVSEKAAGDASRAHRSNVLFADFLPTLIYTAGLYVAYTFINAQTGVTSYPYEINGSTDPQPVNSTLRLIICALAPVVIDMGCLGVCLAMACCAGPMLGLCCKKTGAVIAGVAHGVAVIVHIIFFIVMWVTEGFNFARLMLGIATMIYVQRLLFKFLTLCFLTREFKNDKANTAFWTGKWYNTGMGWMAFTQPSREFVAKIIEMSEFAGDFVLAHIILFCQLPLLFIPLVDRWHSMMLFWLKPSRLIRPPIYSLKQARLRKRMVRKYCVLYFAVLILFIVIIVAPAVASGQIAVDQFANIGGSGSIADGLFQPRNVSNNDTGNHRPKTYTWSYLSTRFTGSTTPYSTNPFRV

1,3-beta-glucan synthase (Aspergillus, UniProt Q4WLT4), sequence (Q4WLT4 whole entry): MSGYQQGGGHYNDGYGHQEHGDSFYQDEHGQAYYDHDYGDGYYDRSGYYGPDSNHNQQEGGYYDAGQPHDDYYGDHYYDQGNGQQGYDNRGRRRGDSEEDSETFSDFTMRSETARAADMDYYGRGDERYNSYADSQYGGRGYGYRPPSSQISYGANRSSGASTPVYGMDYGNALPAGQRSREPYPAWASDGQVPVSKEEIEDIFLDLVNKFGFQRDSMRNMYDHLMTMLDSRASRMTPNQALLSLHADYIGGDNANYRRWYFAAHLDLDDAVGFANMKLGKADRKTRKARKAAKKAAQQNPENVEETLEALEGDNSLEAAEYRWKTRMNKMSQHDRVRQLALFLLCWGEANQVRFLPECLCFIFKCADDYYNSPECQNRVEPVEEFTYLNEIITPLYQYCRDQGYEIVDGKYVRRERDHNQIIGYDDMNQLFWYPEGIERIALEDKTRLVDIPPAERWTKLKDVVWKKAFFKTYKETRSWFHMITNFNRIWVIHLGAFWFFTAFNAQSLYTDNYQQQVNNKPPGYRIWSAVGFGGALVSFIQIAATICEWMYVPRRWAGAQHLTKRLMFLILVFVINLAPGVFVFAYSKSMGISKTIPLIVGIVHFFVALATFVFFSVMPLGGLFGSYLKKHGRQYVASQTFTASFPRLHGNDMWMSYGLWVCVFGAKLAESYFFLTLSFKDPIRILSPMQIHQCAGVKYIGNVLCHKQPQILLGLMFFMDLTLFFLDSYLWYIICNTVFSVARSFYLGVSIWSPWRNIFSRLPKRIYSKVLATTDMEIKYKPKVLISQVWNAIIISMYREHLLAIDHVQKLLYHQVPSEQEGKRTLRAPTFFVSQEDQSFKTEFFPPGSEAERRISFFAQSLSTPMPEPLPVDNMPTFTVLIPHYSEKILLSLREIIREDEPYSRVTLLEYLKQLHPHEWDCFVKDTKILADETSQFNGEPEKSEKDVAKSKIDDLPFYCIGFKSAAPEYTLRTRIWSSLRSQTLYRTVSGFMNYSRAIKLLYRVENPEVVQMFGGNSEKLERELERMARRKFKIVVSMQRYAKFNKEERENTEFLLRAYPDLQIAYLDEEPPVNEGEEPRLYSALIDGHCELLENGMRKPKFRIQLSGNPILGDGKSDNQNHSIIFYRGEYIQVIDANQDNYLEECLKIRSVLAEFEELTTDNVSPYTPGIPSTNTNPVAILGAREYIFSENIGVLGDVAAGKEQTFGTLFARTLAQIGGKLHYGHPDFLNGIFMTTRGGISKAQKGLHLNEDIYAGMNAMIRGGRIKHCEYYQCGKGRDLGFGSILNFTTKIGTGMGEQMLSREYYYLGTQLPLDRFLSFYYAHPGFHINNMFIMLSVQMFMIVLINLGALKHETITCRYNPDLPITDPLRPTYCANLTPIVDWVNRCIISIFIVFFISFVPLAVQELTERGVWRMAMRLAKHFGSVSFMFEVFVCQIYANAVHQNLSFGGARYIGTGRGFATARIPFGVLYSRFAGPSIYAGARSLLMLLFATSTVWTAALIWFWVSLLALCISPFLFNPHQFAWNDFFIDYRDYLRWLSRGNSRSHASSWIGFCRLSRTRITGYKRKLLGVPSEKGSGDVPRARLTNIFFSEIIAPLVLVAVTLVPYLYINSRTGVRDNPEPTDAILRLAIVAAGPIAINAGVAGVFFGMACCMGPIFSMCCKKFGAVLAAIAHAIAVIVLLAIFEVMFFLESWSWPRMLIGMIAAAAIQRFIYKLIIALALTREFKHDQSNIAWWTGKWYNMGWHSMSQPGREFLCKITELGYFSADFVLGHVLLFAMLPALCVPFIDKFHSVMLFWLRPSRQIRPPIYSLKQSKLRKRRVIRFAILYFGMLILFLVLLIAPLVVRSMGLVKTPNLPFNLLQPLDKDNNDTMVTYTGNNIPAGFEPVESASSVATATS

Q: Which results are given for N[C@H]1CCN(C(=O)CN(CC(=O)NCc2cccc(Cl)c2)c2ccc(Oc3ccccc3)cc2)C1?
A: IC50 (1,3-beta-glucan synthase [1]): 5.6 µM; IC50 (1,3-beta-glucan synthase [2]): 8 µM
